Test results reported in patent US20050288230A1, “Non-steroidal anti-androgen therapy” (AstraZeneca AB, priority 2002, published 2005).

Experiments:
[1] = tested on: patients; test: Randomized open-label study: change in BMD by DEXA, bicalutamide 150 mg daily vs medical castration; type: in vivo, human; settings: for lumbar spine BMD increase compared to pre-treatment baseline: 150 mg
Method: Inclusion criteria for a prospective, multicentre, randomized, open-label, parallel-group study, included: disease stage T1-T4, Nx, and M0 for which immediate hormonal ablation was indicated; and Eastern Cooperative Oncology Group (ECOG) performance status 0 or 1.
Patients were randomized in a 1:1 ratio to receive either bicalutamide 150 mg daily or medical castration with a luteinizing hormone-releasing hormone (LHRH) agonist for 2 years.
Primary efficacy endpoints were percentage change from baseline in BMD measures (lumbar spine and hip) at 96 weeks.
An analysis of covariance (ANCOVA) model was used to analyse the primary efficacy endpoints. Analysis was performed for patients for whom data were available at baseline and at Week 96. Subsidiary analyses were performed, carrying forward the last patient assessment at time points where data were missing. A p value of ≦0.017 was considered statistically significant.
Secondary endpoints included: percentage change in lumbar spine-BMD and hip-BMD from baseline to 24, 48 and 72 weeks.
Secondary efficacy endpoints were also analyzed using an ANCOVA model. BMD were assessed via dual energy X-ray absorptiometry (DEXA).
103 patients were recruited to the study and randomized 1:1 to receive either bicalutamide (R/S racemate) 150 mg (n=51) or medical castration (n=52). • The treatment groups were well balanced at baseline (Table 1). • The median testosterone level at baseline was 414.7 ng/dL in the bicalutamide 150 mg group (n=48) and 477.9 ng/dL in the medical castration group (n=52). • Median baseline values for albumin, total calcium, 25-hydroxy vitamin D, and thyroid-stimulating hormone were similar in the two treatment groups. Bone Mineral Density

[2] = tested on: humans; settings: single agent therapy, blood; cited from earlier work
[3] = tested on: patients; settings: Casodex 150 monotherapy, preliminary data; cited from earlier work
[4] = tested on: adult men; settings: cited from earlier work

SMILES	lumbar spine BMD increase compared to pre-treatment baseline ([1]; 24 weeks) [%]	lumbar spine BMD increase compared to pre-treatment baseline ([1]; 48 weeks) [%]	lumbar spine BMD increase compared to pre-treatment baseline ([1]; 72 weeks) [%]	BMD compared to baseline (in words) ([1]; in vivo)	basal level of total testosterone [2]	bone mineral density (in words) [3]	testosterone and LH (in words) [4]
CC(O)(CS(=O)(=O)c1ccc(F)cc1)C(=O)Nc1ccc(C#N)c(C(F)(F)F)c1 (stereo not drawn) [Bicalutamide, 4′-cyano-α′,α′,α′-trifluoro-3-(4-fluorophenylsulphonyl)-2-hydroxy-2-methylpropiono-m-toluidide]	1.05	1.76	2.22	statistically significant increase in BMD compared to baseline	approximate doubling	maintains bone mineral density	
CC/C(=C(\c1ccccc1)c1ccc(OCCN(C)C)cc1)c1ccccc1 [tamoxifen]							increase testosterone and LH
